Assay results: PubChem BioAssay (NCI)
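Results reflect a 48-hour exposure of cells in 96-well plates to compound at five concentrations. At the GI50, growth is halved. The concentration for full growth arrest is given as TGI.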

Experiments:
Experiment in all cases: DTP human tumour cell line panel, 48 h
NCI/ADR-RES ovarian = tested on: NCI/ADR-RES ovarian
MDA-MB-435 = tested on: MDA-MB-435
KM12 colon = tested on: KM12 colon
NCI-H23 lung = tested on: NCI-H23 lung
OVCAR-4 ovarian = tested on: OVCAR-4 ovarian
SNB-19 CNS = tested on: SNB-19 CNS
ACHN renal = tested on: ACHN renal
SF-268 CNS = tested on: SF-268 CNS
CAKI-1 renal = tested on: CAKI-1 renal
786-0 renal = tested on: 786-0 renal
SF-539 CNS = tested on: SF-539 CNS
SK-OV-3 ovarian = tested on: SK-OV-3 ovarian
SK-MEL-28 melanoma = tested on: SK-MEL-28 melanoma
UACC-257 melanoma = tested on: UACC-257 melanoma
DU-145 prostate = tested on: DU-145 prostate
SNB-75 CNS = tested on: SNB-75 CNS
SF-295 CNS = tested on: SF-295 CNS
A549 NSCLC = tested on: A549 NSCLC
NCI-H226 lung = tested on: NCI-H226 lung
UO-31 renal = tested on: UO-31 renal
A498 renal = tested on: A498 renal
RXF 393 renal = tested on: RXF 393 renal
T-47D breast = tested on: T-47D breast
OVCAR-3 ovarian = tested on: OVCAR-3 ovarian
PC-3 prostate = tested on: PC-3 prostate
HCC-2998 colon = tested on: HCC-2998 colon
CCRF-CEM leukemia = tested on: CCRF-CEM leukemia
HOP-92 NSCLC = tested on: HOP-92 NSCLC
SR leukemia = tested on: SR leukemia
IGROV1 ovarian = tested on: IGROV1 ovarian
M14 melanoma = tested on: M14 melanoma
HCT-15 colon = tested on: HCT-15 colon
OVCAR-8 ovarian = tested on: OVCAR-8 ovarian
UACC-62 melanoma = tested on: UACC-62 melanoma
NCI-H460 lung = tested on: NCI-H460 lung
SN12C renal = tested on: SN12C renal
MCF7 breast = tested on: MCF7 breast
HT29 colon = tested on: HT29 colon
LOX IMVI melanoma = tested on: LOX IMVI melanoma
HOP-62 NSCLC = tested on: HOP-62 NSCLC
MDA-MB-231 breast = tested on: MDA-MB-231 breast
SK-MEL-2 melanoma = tested on: SK-MEL-2 melanoma
BT-549 breast = tested on: BT-549 breast
HCT-116 colon = tested on: HCT-116 colon
HL-60(TB) leukemia = tested on: HL-60(TB) leukemia
COLO 205 colon = tested on: COLO 205 colon
TK-10 renal = tested on: TK-10 renal
MOLT-4 leukemia = tested on: MOLT-4 leukemia
SW-620 colon = tested on: SW-620 colon
SK-MEL-5 melanoma = tested on: SK-MEL-5 melanoma
K-562 leukemia = tested on: K-562 leukemia
HS 578T breast = tested on: HS 578T breast
MALME-3M melanoma = tested on: MALME-3M melanoma
NCI-H522 lung = tested on: NCI-H522 lung
U251 CNS = tested on: U251 CNS
OVCAR-5 ovarian = tested on: OVCAR-5 ovarian
RPMI-8226 leukemia = tested on: RPMI-8226 leukemia

SMILES: c1csc(-c2[nH]nc3c2CCc2ccccc2-3)c1
- GI50 (NCI/ADR-RES ovarian): 17.7 µM
- TGI (NCI/ADR-RES ovarian): 49.3 µM
- GI50 (MDA-MB-435): 19.2 µM
- TGI (MDA-MB-435): 42.6 µM
- GI50 (KM12 colon): 0.406 µM
- TGI (KM12 colon): 14.9 µM
- GI50 (NCI-H23 lung): 16.1 µM
- TGI (NCI-H23 lung): 42.9 µM
- GI50 (OVCAR-4 ovarian): 2.12 µM
- TGI (OVCAR-4 ovarian): 37.3 µM
- GI50 (SNB-19 CNS): 13.3 µM
- TGI (SNB-19 CNS): > 65.9 µM
- GI50 (ACHN renal): 18.1 µM
- TGI (ACHN renal): 85 µM
- GI50 (SF-268 CNS): 16.7 µM
- TGI (SF-268 CNS): 55 µM
- GI50 (CAKI-1 renal): 19.6 µM
- TGI (CAKI-1 renal): 58.1 µM
- GI50 (786-0 renal): 21.3 µM
- TGI (786-0 renal): 51 µM
- GI50 (SF-539 CNS): 12.9 µM
- TGI (SF-539 CNS): 29 µM
- GI50 (SK-OV-3 ovarian): 24.6 µM
- TGI (SK-OV-3 ovarian): 65.6 µM
- GI50 (SK-MEL-28 melanoma): 19.2 µM
- TGI (SK-MEL-28 melanoma): 39.7 µM
- GI50 (UACC-257 melanoma): 19.8 µM
- TGI (UACC-257 melanoma): 49.1 µM
- GI50 (DU-145 prostate): 23.4 µM
- TGI (DU-145 prostate): 71.3 µM
- GI50 (SNB-75 CNS): 4.25 µM
- TGI (SNB-75 CNS): 35 µM
- GI50 (SF-295 CNS): 16.4 µM
- TGI (SF-295 CNS): 38.7 µM
- GI50 (A549 NSCLC): 13 µM
- TGI (A549 NSCLC): 55.4 µM
- GI50 (NCI-H226 lung): 13.5 µM
- TGI (NCI-H226 lung): 42.2 µM
- GI50 (UO-31 renal): 6.4 µM
- TGI (UO-31 renal): 34.9 µM
- GI50 (A498 renal): 14.3 µM
- TGI (A498 renal): 32.4 µM
- GI50 (RXF 393 renal): 16.9 µM
- TGI (RXF 393 renal): 37.4 µM
- GI50 (T-47D breast): 0.17 µM
- TGI (T-47D breast): 0.515 µM
- GI50 (OVCAR-3 ovarian): 3.35 µM
- TGI (OVCAR-3 ovarian): 19.7 µM
- GI50 (PC-3 prostate): 12.5 µM
- TGI (PC-3 prostate): 37.5 µM
- GI50 (HCC-2998 colon): 1.15 µM
- TGI (HCC-2998 colon): 28.6 µM
- GI50 (CCRF-CEM leukemia): 21.7 µM
- TGI (CCRF-CEM leukemia): 73.3 µM
- GI50 (HOP-92 NSCLC): 1.88 µM
- TGI (HOP-92 NSCLC): 20.4 µM
- GI50 (SR leukemia): 21.9 µM
- TGI (SR leukemia): 66.3 µM
- GI50 (IGROV1 ovarian): 19.4 µM
- TGI (IGROV1 ovarian): 73 µM
- GI50 (M14 melanoma): 17.8 µM
- TGI (M14 melanoma): 38 µM
- GI50 (HCT-15 colon): 0.289 µM
- TGI (HCT-15 colon): 18.6 µM
- GI50 (OVCAR-8 ovarian): 18.7 µM
- TGI (OVCAR-8 ovarian): 56.8 µM
- GI50 (UACC-62 melanoma): 13.6 µM
- TGI (UACC-62 melanoma): 27.8 µM
- GI50 (NCI-H460 lung): 9.12 µM
- TGI (NCI-H460 lung): 34.3 µM
- GI50 (SN12C renal): 14.8 µM
- TGI (SN12C renal): 30.2 µM
- GI50 (MCF7 breast): 0.23 µM
- TGI (MCF7 breast): 11.8 µM
- GI50 (HT29 colon): 15.6 µM
- TGI (HT29 colon): 42.6 µM
- GI50 (LOX IMVI melanoma): 15.7 µM
- TGI (LOX IMVI melanoma): 29.4 µM
- GI50 (HOP-62 NSCLC): 12.8 µM
- TGI (HOP-62 NSCLC): 28.7 µM
- GI50 (MDA-MB-231 breast): 0.966 µM
- TGI (MDA-MB-231 breast): 19.5 µM
- GI50 (SK-MEL-2 melanoma): 19.7 µM
- TGI (SK-MEL-2 melanoma): 37.9 µM
- GI50 (BT-549 breast): 16.1 µM
- TGI (BT-549 breast): 31.9 µM
- GI50 (HCT-116 colon): 14.9 µM
- TGI (HCT-116 colon): 29.3 µM
- GI50 (HL-60(TB) leukemia): 20.5 µM
- TGI (HL-60(TB) leukemia): 47.3 µM
- GI50 (COLO 205 colon): 0.766 µM
- TGI (COLO 205 colon): 8.17 µM
- GI50 (TK-10 renal): 0.862 µM
- TGI (TK-10 renal): 61.6 µM
- GI50 (MOLT-4 leukemia): 14.9 µM
- TGI (MOLT-4 leukemia): 53.8 µM
- GI50 (SW-620 colon): 20.3 µM
- TGI (SW-620 colon): 46.1 µM
- GI50 (SK-MEL-5 melanoma): 13 µM
- TGI (SK-MEL-5 melanoma): 26 µM
- GI50 (K-562 leukemia): 22 µM
- TGI (K-562 leukemia): 68.6 µM
- GI50 (HS 578T breast): 14.5 µM
- TGI (HS 578T breast): 55.4 µM
- GI50 (MALME-3M melanoma): 19.8 µM
- TGI (MALME-3M melanoma): 50.4 µM
- GI50 (NCI-H522 lung): 18.9 µM
- TGI (NCI-H522 lung): 44.9 µM
- GI50 (U251 CNS): 11.6 µM
- TGI (U251 CNS): 26.3 µM
- GI50 (OVCAR-5 ovarian): 0.959 µM
- TGI (OVCAR-5 ovarian): 32.4 µM
- GI50 (RPMI-8226 leukemia): 15.6 µM
- TGI (RPMI-8226 leukemia): 55.4 µM

SMILES: COc1ccc2c(CCCCC(c3ccccc3)c3ccccc3)c3[n+](cc2c1OC)CCc1cc2c(cc1-3)OCO2
- GI50 (NCI/ADR-RES ovarian): 1.83 µM
- TGI (NCI/ADR-RES ovarian): 7.48 µM
- GI50 (MDA-MB-435): 0.106 µM
- TGI (MDA-MB-435): 1.02 µM
- GI50 (NCI-H226 lung): 0.28 µM
- TGI (NCI-H226 lung): 1.85 µM
- GI50 (SK-MEL-5 melanoma): 0.0451 µM
- TGI (SK-MEL-5 melanoma): 0.177 µM
- GI50 (HS 578T breast): 0.536 µM
- TGI (HS 578T breast): 3.09 µM
